What is called DC50 is the concentration giving 50% degradation.

The record followed here is patent US20260295053A1, “COMPOUNDS FOR DEGRADATION AND INHIBITION OF KRAS (G12D) PROTEIN” (Shenzhen Ionova Life Science Co., Ltd., priority 2023, published 2026).

SMILES strings stand for the structures.

T1 sequence (P01116 1-188 isoform P01116-2 G12D): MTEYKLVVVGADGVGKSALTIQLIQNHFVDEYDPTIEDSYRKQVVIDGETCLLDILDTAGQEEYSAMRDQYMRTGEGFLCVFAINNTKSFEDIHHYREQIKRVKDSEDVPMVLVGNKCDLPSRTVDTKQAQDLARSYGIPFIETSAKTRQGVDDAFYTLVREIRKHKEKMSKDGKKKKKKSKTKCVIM

The experiment addresses T1, KRAS (G12D) (Homo sapiens, UniProt P01116, G12D).
T1 construct: in-cell western with KRAS G12D antibody after 24 h
Description: KRAS (G12D) cellular degradation assay in AsPC-1 cells. The settings on record: 24 hours, antibody fluorescence (Odyssey CLX), DC50 half-maximal degradation concentration. The format is cell-based. An outline of the steps:
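Proliferation IC50 comes from CellTiter Glo luminescence after 6 days' exposure of AsPC-1 (3,500 cells/well) to 1:3 dilutions from […] to 1.5 nM. KRAS G12D DC50 derives from in-cell immunofluorescence normalised to β-actin after 24 h treatment of near-confluent AsPC-1 cells over the same range.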
For `CO[C@@H](C)COc1nc(N2C[C@H]3CN[C@H](C3)C2)c2cc(C3CC3)c(-c3c(C)c(F)cc4[nH]ncc34)c(OCc3ccc(-c4cn([C@H](C(=O)N5C[C@H](O)C[C@H]5C(=O)N[C@@H](CO)c5ccc(-c6scnc6C)cc5)C(C)C)nn4)cc3)c2n1` [Example 223, (2S,4R)-1-((2S)-2-(4-(4-(((4-((1R,5R)-3,6-diazabicyclo[3.2.1]octan-3-yl)-6-cyclopropyl-7-(6-fluoro-5-methyl-1H-indazol-4-yl)-2-((S)-2-methoxypropoxy)quinazolin-8-yl)oxy)methyl)phenyl)-1H-1,2,3-triazol-1-yl)-3-methylbutanoyl)-4-hydroxy-N—((R)-2-hydroxy-1-(4-(4-methylthiazol-5-yl)phenyl)ethyl)pyrrolidine-2-carboxamide], the half-maximal degradation concentration (DC50) was 10 to 100 nM.

Turning to `CCn1nccc1-c1ccc([C@H](CO)NC(=O)[C@@H]2C[C@@H](O)CN2C(=O)[C@H](C(C)C)n2cc(-c3ccc(COc4c(-c5c(C)c(F)cc6[nH]ncc56)c(C5CC5)cc5c(N6CCCNCC6)nc(OC[C@H](C)OC)nc45)cc3)nn2)c2c1CC2` [Example 224, (2S,4R)-1-((2S)-2-(4-(4-(((6-cyclopropyl-4-(1,4-diazepan-1-yl)-7-(6-fluoro-5-methyl-1H-indazol-4-yl)-2-((S)-2-methoxypropoxy)quinazolin-8-yl)oxy)methyl)phenyl)-1H-1,2,3-triazol-1-yl)-3-methylbutanoyl)-N—((R)-1-(5-(1-ethyl-1H-pyrazol-5-yl)bicyclo[4.2.0]octa-1(6),2,4-trien-2-yl)-2-hydroxyethyl)-4-hydroxypyrrolidine-2-carboxamide], the DC50 was below 10 nM.

Molecule `CCn1nccc1-c1ccc([C@H](CO)NC(=O)[C@@H]2C[C@@H](O)CN2C(=O)[C@H](C(C)C)n2cc(-c3ccc(COc4c(-c5c(C)c(F)cc6[nH]ncc56)c(C5CC5)cc5c(N6CCC(N)CC6)nc(OC[C@H](C)OC)nc45)cc3)nn2)cc1` [Example 225, (2S,4R)-1-((2S)-2-(4-(4-(((4-(4-aminopiperidin-1-yl)-6-cyclopropyl-7-(6-fluoro-5-methyl-1H-indazol-4-yl)-2-((S)-2-methoxypropoxy)quinazolin-8-yl)oxy)methyl)phenyl)-1H-1,2,3-triazol-1-yl)-3-methylbutanoyl)-N—((R)-1-(4-(1-ethyl-1H-pyrazol-5-yl)phenyl)-2-hydroxyethyl)-4-hydroxypyrrolidine-2-carboxamide] returned a DC50 below 10 nM.

Regarding `CCn1nccc1-c1ccc([C@H](CO)NC(=O)[C@@H]2C[C@@H](O)CN2C(=O)[C@H](C(C)C)n2cc(-c3ccc(COc4c(-c5c(C)c(F)cc6[nH]ncc56)c(C5CC5)cc5c(N6CCC(NC(C)=O)CC6)nc(OC[C@H](C)OC)nc45)cc3)nn2)cc1` [Example 226, (2S,4R)-1-((2S)-2-(4-(4-(((4-(4-acetamidopiperidin-1-yl)-6-cyclopropyl-7-(6-fluoro-5-methyl-1H-indazol-4-yl)-2-((S)-2-methoxypropoxy)quinazolin-8-yl)oxy)methyl)phenyl)-1H-1,2,3-triazol-1-yl)-3-methylbutanoyl)-N—((R)-1-(4-(1-ethyl-1H-pyrazol-5-yl)phenyl)-2-hydroxyethyl)-4-hydroxypyrrolidine-2-carboxamide], the DC50 was 10 to 100 nM.

The molecule `CCn1nccc1-c1ccc([C@H](CO)NC(=O)[C@@H]2C[C@@H](O)CN2C(=O)[C@H](C(C)C)n2cc(-c3ccc(COc4c(-c5c(C)c(F)cc6[nH]ncc56)c(C5CC5)cc5c(N6CC7CNCC7C6)nc(OC[C@H](C)OC)nc45)cc3)nn2)cc1` (stereo partly drawn) [Example 227, (2S,4R)-1-((2S)-2-(4-(4-(((6-cyclopropyl-7-(6-fluoro-5-methyl-1H-indazol-4-yl)-4-(hexahydropyrrolo[3,4-c]pyrrol-2(1H)-yl)-2-((S)-2-methoxypropoxy)quinazolin-8-yl)oxy)methyl)phenyl)-1H-1,2,3-triazol-1-yl)-3-methylbutanoyl)-N—((R)-1-(4-(1-ethyl-1H-pyrazol-5-yl)phenyl)-2-hydroxyethyl)-4-hydroxypyrrolidine-2-carboxamide] showed a DC50 of 10 to 100 nM.
